Eight compounds from the supplement of paper PMC12494721 can be followed below.

For assay [1], the system named is Clostridium sporogenes DSM 1664. Briefly: growth (OD595) fold change vs plate DMSO controls (fold change (ratio)); higher = more growth. Particulars: incubation time: 27 h, anaerobic, 37 °C.
Assay [2] shares this test system. Put plainly: fold change of Tryptamine concentration vs plate DMSO controls (fold change (ratio)); higher = more amine produced. The settings on record: incubation time: 27 h, anaerobic, 37 °C.

Structures are written as SMILES. Where a name gives a salt, the structure may show the parent alone.

Turning to `NCc1ccccc1CC(=O)N[C@@H]1C(=O)N2C(C(=O)O)=C(CSc3nnnn3CC(=O)O)CS[C@H]12` [Ceforanide], the growth is 0.842 in assay [1] (0.6125 µM); 0.767 in assay [1] (1.25 µM); 0.564 in assay [1] (2.5 µM); 0.36 in assay [1] (5 µM); -0.0035 in assay [1] (10 µM); -0.0325 in assay [1] (20 µM). Moreover, the “fold change of Tryptamine concentration” value in assay [2] (0.6125 µM) was 0.989; in assay [2] (1.25 µM), 1; in assay [2] (2.5 µM), 1.04; in assay [2] (5 µM), 0.576; in assay [2] (10 µM) it was 0.035; in assay [2] (20 µM), 0.0236.

Regarding `CC=CC1=C(C(=O)O)N2C(=O)[C@@H](NC(=O)[C@H](N)c3ccc(O)cc3)[C@H]2SC1` [Cefprozil], the growth turned out to be 1.1 in assay [1] (0.6125 µM); 0.85 in assay [1] (1.25 µM); 1.02 in assay [1] (2.5 µM); 0.79 in assay [1] (5 µM); 0.573 in assay [1] (10 µM); 0.194 in assay [1] (20 µM). The “fold change of Tryptamine concentration” value was 1 in assay [2] (0.6125 µM); 0.973 in assay [2] (1.25 µM); 1 in assay [2] (2.5 µM); 0.974 in assay [2] (5 µM); 0.926 in assay [2] (10 µM); 0.722 in assay [2] (20 µM).

Take `CC(=O)OCC1=C(C(=O)O)N2C(=O)[C@@H](NC(=O)Cc3cccs3)[C@H]2SC1` [Cephalothin sodium salt]: the growth in assay [1] (0.6125 µM) is 0.841; in assay [1] (1.25 µM), 0.629; in assay [1] (2.5 µM), -0.0397; in assay [1] (5 µM), -0.0266; in assay [1] (10 µM) it was -0.0343; in assay [1] (20 µM) it was -0.0372. The “fold change of Tryptamine concentration” value in assay [2] (0.6125 µM) is 0.905; in assay [2] (1.25 µM) it was 0.0953; in assay [2] (2.5 µM) it was 0.0223; in assay [2] (5 µM), 0.0219; in assay [2] (10 µM), 0.0236; in assay [2] (20 µM), 0.0234.

In the case of `CC(C)/N=c1\cc2n(-c3ccc(Cl)cc3)c3ccccc3nc-2cc1Nc1ccc(Cl)cc1` [Clofazimine], the growth in assay [1] (0.6125 µM) was 1.11; in assay [1] (1.25 µM), 1.34; in assay [1] (2.5 µM), 1.22; in assay [1] (5 µM) it was 0.64; in assay [1] (10 µM), 0.578; in assay [1] (20 µM) it was -0.0109. In addition, the “fold change of Tryptamine concentration” value in assay [2] (0.6125 µM) turned out to be 0.975; in assay [2] (1.25 µM) it was 0.893; in assay [2] (2.5 µM) it was 0.681; in assay [2] (5 µM), 0.365; in assay [2] (10 µM), 0.379; in assay [2] (20 µM), 0.0193.

Take `Cc1cc(C(C#N)c2ccc(Cl)cc2)c(Cl)cc1NC(=O)c1cc(I)cc(I)c1O` (stereo unspecified) [Closantel]: the growth is 0.882 in assay [1] (0.6125 µM); 0.866 in assay [1] (1.25 µM); 0.792 in assay [1] (2.5 µM); 0.749 in assay [1] (5 µM); 0.364 in assay [1] (10 µM); -0.0258 in assay [1] (20 µM). Moreover, the “fold change of Tryptamine concentration” value in assay [2] (0.6125 µM) worked out at 0.999; in assay [2] (1.25 µM), 1.02; in assay [2] (2.5 µM), 0.991; in assay [2] (5 µM), 0.895; in assay [2] (10 µM), 0.367; in assay [2] (20 µM), 0.0184.

With `Oc1c(Cl)cc(Cl)c(Cl)c1Cc1c(O)c(Cl)cc(Cl)c1Cl` [Hexachlorophene], the growth in assay [1] (0.6125 µM) was 1.05; in assay [1] (1.25 µM), 0.819; in assay [1] (2.5 µM), 0.779; in assay [1] (5 µM), 0.711; in assay [1] (10 µM) it was -0.0128; in assay [1] (20 µM), -0.032. Also, the “fold change of Tryptamine concentration” value in assay [2] (0.6125 µM) was found to be 1.1; in assay [2] (1.25 µM), 1.03; in assay [2] (2.5 µM) it was 1.09; in assay [2] (5 µM), 0.693; in assay [2] (10 µM), 0.0218; in assay [2] (20 µM), 0.0164.

In the case of `N[C@@H](C(=O)N[C@@H]1C(=O)N2C(C(=O)O)=C(Cl)CC[C@H]12)c1ccccc1` [Loracarbef], the growth is 1.15 in assay [1] (0.6125 µM); 0.723 in assay [1] (1.25 µM); -0.0147 in assay [1] (2.5 µM); -0.0473 in assay [1] (5 µM); -0.0388 in assay [1] (10 µM); -0.0407 in assay [1] (20 µM). Besides, the “fold change of Tryptamine concentration” value in assay [2] (0.6125 µM) was 0.974; in assay [2] (1.25 µM) it was 0.86; in assay [2] (2.5 µM), 0.0468; in assay [2] (5 µM), 0.0243; in assay [2] (10 µM) it was 0.0223; in assay [2] (20 µM), 0.0215.

On to `O=C1NCCN1c1ncc([N+](=O)[O-])s1` [Niridazole], for which the growth in assay [1] (0.6125 µM) was 1.08; in assay [1] (1.25 µM), 1.15; in assay [1] (2.5 µM), 0.588; in assay [1] (5 µM) it was 0.258; in assay [1] (10 µM), -0.0146; in assay [1] (20 µM), -0.0213. For the same compound, the “fold change of Tryptamine concentration” value in assay [2] (0.6125 µM) is 0.708; in assay [2] (1.25 µM), 0.607; in assay [2] (2.5 µM) it was 0.181; in assay [2] (5 µM), 0.0568; in assay [2] (10 µM), 0.0233; in assay [2] (20 µM), 0.018.
